The results in this text go back to patent US12478625B2, “Pharmaceutical compositions and crushable tablets including amorphous solid dispersions of dasatinib and uses” (Handa Therapeutics, LLC, priority 2021, dated 2025).

Details in all cases: promptly after spray drying and vacuum drying
Data set [1] in a line: Amorphicity / crystallinity by XRD on stability. It is filed as physicochemical. Here is the method:
Diffraction patterns were obtained using a Rigaku MiniFlex 600.
The percent of crystallinity was calculated as follows: % crystallinity=area of crystalline peaks/(area of crystalline peaks+amorphous peaks)
(§1) ASDs stored at 25° C./60% RH and 25° C./protected were additionally evaluated at 9 months and 12 months.
Amorphicity and glass transition temperature were assessed using the methodology described in Example 1.

A short description of data set [2]: Water content by coulometric Karl Fischer titration. The data set is classed as physicochemical.
A short description of data set [3]: Assay / total impurities by HPLC on stability. The data set is classed as physicochemical. Here is the method: as §1
LOD was evaluated using the Computrac Max 4000, in which approximately 0.5 g of material was spread evenly across the sample pan. Assay/impurities of the ASDs were assessed using the instrument parameters, measurement conditions, and gradient profile specified in Table 11.

Data set [4] can be described thus: Glass transition temperature by modulated DSC.

Turning to `Cc1nc(Nc2ncc(C(=O)Nc3c(C)cccc3Cl)s2)cc(N2CCN(CCO)CC2)n1` [spray-dried material of 100% dasatinib], the XRD crystallinity result in data set [1] is given as “exhibited crystalline character”. Moreover, the Water content in data set [2] is 0.81%. The assay value in data set [3] turned out to be 97.4%. Also, the “glass transition temperature (Tg)” value in data set [4] is 125.61 °C.
